The values that follow are results of earlier work, collected in patent publication US20100317740A1, “Method for Predicting Response to Tamoxifen” (GEORGE MASON INTELLECTUAL PROPERTIES, INC., priority 2007, published 2010).

In the data set the test system is node negative breast cancer with estrogen receptor on tumors. The conditions noted are these: women with node negative breast cancer and estrogen receptor on their tumors.

For `CC/C(=C(\c1ccccc1)c1ccc(OCCN(C)C)cc1)c1ccccc1` [Tamoxifen], the “eligible women who do not respond to Tamoxifen therapy” value is 30-40%.
